# In patent US11879895B2, “Intercellular proximity labeling using eGRASP” (Seoul National University R&DB Foundation, priority 2018, dated 2024):
# How the values were obtained:
# HEK293T cells = test: GRASP signal at the interface of separately nucleofected HEK293T cells; assay type: cell-based, human; settings: pre- and post-constructs transduced into separate HEK293T cells through nucleofection
# Description: According to still another embodiment of the present disclosure, the first labeling material or the second labeling material may further comprise a first binding-enhancing site or a second binding-enhancing site, respectively. Specifically, when the first labeling material and the second labeling material are located in close proximity, the first labeling material and the second labeling material are bound to each other to generate a signal. In order to assist the binding, the first labeling material and the second labeling material may further comprise a first binding-enhancing site and a second binding-enhancing site, respectively. The first binding-enhancing site and the second binding-enhancing site may form a binding with each other. Therefore, when the first labeling material and the second labeling material are adjacent to each other, the first binding-enhancing site and the second binding-enhancing site are bound to assist the binding of the first labeling material and the second labeling material.
# The upper figure of FIG. 5a is a result when either post-mGRASP or mCherry-binding pre-mGRASP co-expressing mTagBFP2 was transduced into HEK293T cells through nucleofection. […] Peptide p40 (APTYSPPPPP) was bound to a SH3 domain in the post-eGRASP structure to enhance GRASP signals. […]
# Abl SH3 peptide = biological target: T1, Abl SH3 peptide (Homo sapiens, UniProt P00519); test: Binding of Abl SH3 binding peptide to Abl SH3 peptide of post-eGRASP; settings: p32 compared with p30
# T1 construct: IgG kappa signal peptide (N)
# Method: (3) Abl SH3 binding peptide contained in Pre-eGRASP had p30 (APTKPPPLPP) or p32 (SPSYSPPPPP) sequence. p32 was bound more strongly to Abl SH3 peptide of post-eGRASP than p30. Therefore, in this example, a cyan pre-eGRASP designed to be continuously expressed was prepared using p30, and in this example, yellow pre-eGRASP designed to start to be expressed from a specific time point when memory starts to be formed was prepared using p32, thereby matching the balance of cyan fluorescence and yellow fluorescence.
# DG = test: Validation of the Fos-rtTA system with seizures; assay type: in vivo, mice; settings: injection of seizure inducer, doxycycline 2 hours before
# Method: FIGS. 8a to 8c show the results of validation experiments of the Fos-rtTA system with seizures. FIG. 8a is a schematic illustration of the injected AAV, in which the nuclear target mEmerald (mEmerald-Nuc) was regulated by the TRE3G promoter that were regulated by rtTA3G expressed by the Fos promoter, and the nuclear target mCherry regulated by CaMKIIα was used for an expression control.
# Doxycycline was injected 2 hours before seizure induction or contextual fear conditioning (CFC) to successfully label activated cells during each event (FIGS. 8A to 8C and FIGS. 9A to 9D). FIGS. 8a to 8c show the results of validation experiments of the Fos-rtTA system with seizures. FIG. 8a is a schematic illustration of the injected AAV, in which the nuclear target mEmerald (mEmerald-Nuc) was regulated by the TRE3G promoter regulated by rtTA3G expressed by the Fos promoter, and the nuclear target mCherry regulated by CaMKIIα was used as an expression control. […] FIGS. 9a to 9d show the results of the verification experiment of the Fos-rtTA system using CFC. […] FIG. 9b is a diagram showing a timetable of actions used in the experiment.
# T1 sequence (P00519 with tags, fused parts or gaps): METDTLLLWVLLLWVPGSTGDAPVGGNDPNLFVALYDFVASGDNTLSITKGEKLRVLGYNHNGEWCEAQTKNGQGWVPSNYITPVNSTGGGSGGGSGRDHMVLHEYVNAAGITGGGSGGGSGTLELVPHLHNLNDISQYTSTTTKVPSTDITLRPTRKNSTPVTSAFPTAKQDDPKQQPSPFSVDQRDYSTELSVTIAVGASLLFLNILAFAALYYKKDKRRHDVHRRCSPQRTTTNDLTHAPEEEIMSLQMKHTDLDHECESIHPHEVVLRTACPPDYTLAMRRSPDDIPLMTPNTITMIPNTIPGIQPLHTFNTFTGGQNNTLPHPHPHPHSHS
compound,measurement,setting,value
S72A: Additional S72A mutation in strands 1-10 of the split GFP; SEQ ID NO: 2,GRASP signal at the interface between cells,HEK293T cells,GRASP signal increases
SPSYSPPPPP ((synthetic) p32),"binding to Abl SH3 peptide, relative",Abl SH3 peptide,more strongly
C1CCc2nnnn2CC1 [Pentylenetetrazol],mEmerald-Nuc signal in DG,DG,strong mEmerald-Nuc signal
